Measurements from US12285407B2, “Bis-indolylmethane derivatives and uses thereof” (The University of The West Indies, priority 2018, dated 2025).
Like-named read-outs stand apart in the source and are kept apart here.

Legend:
Streptococcus pneumoniae [1] = test: Adjuvant broth microdilution (antibiotic MIC with SP-BIM at 50 μg/mL); assay type: cell-based; details: Streptococcus pneumoniae; Streptococcus pneumonia; antibiotic alone; Table 5; read-out: MIC of antibiotic, No compound
Escherichia coli [2] = test: microbe, parasite or virus in culture; assay type: cell-based; details: antibiotic alone, Table 6, read-out: MIC of antibiotic, No compound
Staphylococcus aureus = test: Checkerboard synergy (FICI) of antibiotics with SP-BIM; assay type: cell-based; details: Staphylococcus aureus, Staphylococcus aureus; for MIC: 24 h, antibiotic alone, read-out: MIC antibiotic only
Streptococcus pneumoniae [3] = test: as above; assay type: cell-based; details: for MIC: 24 h, antibiotic alone, read-out: MIC antibiotic only
Bacillus cereus = test: as above; assay type: cell-based; details: for MIC: 24 h, antibiotic alone, read-out: MIC antibiotic only
Klebsiella pneumoniae = test: as above; assay type: cell-based; details: for MIC: 24 h, antibiotic alone, read-out: MIC antibiotic only
[4] = tested on: clinical antibiotic resistant isolates of MRSA; test: Checkerboard resistance breaking by SP-BIM 13; assay type: cell-based, Staphylococcus aureus; details: for FIC compound / Rescue concentration of SP-BIM 13: SP-BIM 13 with the labelled antibiotic; for Interpretation / Σ FIC: antibiotic + SP-BIM 13; for MIC of antibiotic only: antibiotic alone; for FIC antibiotic: combination with SP-BIM 13; for MIC of antibiotic in combination: with SP-BIM 13 at rescue concentration
[5] = tested on: clinical antibiotic resistant isolates of Enterococcus faecium; test: Checkerboard resistance breaking by SP-BIM 13; assay type: cell-based; details: for FIC compound / Rescue concentration of SP-BIM 13: SP-BIM 13 with the labelled antibiotic; for Interpretation / Σ FIC: antibiotic + SP-BIM 13; for MIC of antibiotic only: antibiotic alone; for FIC antibiotic: combination with SP-BIM 13; for MIC of antibiotic in combination: with SP-BIM 13 at rescue concentration
Escherichia coli [6] = test: Checkerboard synergy (FICI) of antibiotics with SP-BIM; design: MIC SP-BIM 13 only / MIC in combination: Antibiotic: unit not given beside the values; details: for MIC: 24 h
Candida albicans = test: as above; design: MIC SP-BIM 13 only / MIC in combination: Antibiotic / MIC antibiotic only: unit not given beside the values
[7] = SP-BIM 9 in combination with the labelled antibiotic
[8] = SP-BIM 13 in combination with the labelled antibiotic
[9] = antibiotic in combination with SP-BIM 9
[10] = antibiotic in combination with SP-BIM 13
[11] = Streptococcus pneumonia (title: Streptococcus pyogenes), antibiotic + SP-BIM 9
[12] = Streptococcus pneumoniae, antibiotic + SP-BIM 13
[13] = MIC of the antibiotic in combination with SP-BIM 13

[H]/N=C(/N)N[C@H]1[C@H](O)[C@@H](O)[C@H](O[C@@H]2O[C@@H](C)[C@](O)(C=O)[C@H]2O[C@@H]2O[C@@H](CO)[C@H](O)[C@@H](O)[C@@H]2NC)[C@@H](N/C(N)=N\[H])[C@@H]1O [Streptomycin, streptomycin]
MIC (Streptococcus pneumoniae [1]): 16 mg/L
MIC (Escherichia coli [2]): 8 mg/L
MIC (Staphylococcus aureus; SP-BIM 9 checkerboard): 8 mg/L
MIC (Staphylococcus aureus; SP-BIM 13 checkerboard): 8 mg/L
FIC of SP-BIM 9 (Staphylococcus aureus; [7]): 0.25
FIC of SP-BIM 13 (Staphylococcus aureus; [8]): 0.3
Interpretation (Staphylococcus aureus; antibiotic + SP-BIM 9): Synergy (Synergy: FICI≤0.5)
Σ FIC (Staphylococcus aureus; antibiotic + SP-BIM 9): <0.38
Interpretation (Staphylococcus aureus; antibiotic + SP-BIM 13): Synergy (Synergy: FICI≤0.5)
Σ FIC (Staphylococcus aureus; antibiotic + SP-BIM 13): 0.3
MIC in combination, Antibiotic (Staphylococcus aureus; [9]): 1.0 mg/L
MIC in combination, Antibiotic (Staphylococcus aureus; [10]): 0.25 mg/L
FIC of antibiotic (Staphylococcus aureus; in combination with SP-BIM 9): 0.13
FIC of antibiotic (Staphylococcus aureus; in combination with SP-BIM 13): 0.0
FIC of SP-BIM 9 (Streptococcus pneumoniae [3]; Streptococcus pneumonia (title: Streptococcus pyogenes), SP-BIM 9 in combination with the labelled antibiotic): 0.06
Interpretation (Streptococcus pneumoniae [3]; [11]): Synergy (Synergy: FICI≤0.5)
Σ FIC (Streptococcus pneumoniae [3]; [11]): <0.07
MIC in combination, Antibiotic (Streptococcus pneumoniae [3]; Streptococcus pneumonia (title: Streptococcus pyogenes), antibiotic in combination with SP-BIM 9): 0.2 mg/L
FIC of antibiotic (Streptococcus pneumoniae [3]; Streptococcus pneumonia (title: Streptococcus pyogenes), in combination with SP-BIM 9): 0.01
MIC (Streptococcus pneumoniae [3]; Streptococcus pneumoniae, Streptococcus pneumonia (title: Streptococcus pyogenes), SP-BIM 9 checkerboard): 32 mg/L
MIC (Streptococcus pneumoniae [3]; Streptococcus pneumoniae, Streptococcus pneumoniae, SP-BIM 13 checkerboard): 32 mg/L
FIC of SP-BIM 13 (Streptococcus pneumoniae [3]; Streptococcus pneumoniae, SP-BIM 13 in combination with the labelled antibiotic): 0.3
Interpretation (Streptococcus pneumoniae [3]; [12]): Synergy (Synergy: FICI≤0.5)
Σ FIC (Streptococcus pneumoniae [3]; [12]): <0.3
MIC in combination, Antibiotic (Streptococcus pneumoniae [3]; Streptococcus pneumoniae, antibiotic in combination with SP-BIM 13): 1 mg/L
FIC of antibiotic (Streptococcus pneumoniae [3]; Streptococcus pneumoniae, in combination with SP-BIM 13): 0.0
MIC (Bacillus cereus; SP-BIM 9 checkerboard): 4 mg/L
MIC (Bacillus cereus; SP-BIM 13 checkerboard): 4 mg/L
MIC in combination, SP-BIM 9 (Bacillus cereus; SP-BIM 9 concentration in combination with the labelled antibiotic): >250 mg/L
FIC of SP-BIM 9 (Bacillus cereus; [7]): 1
FIC of SP-BIM 13 (Bacillus cereus; [8]): 0.1
Interpretation (Bacillus cereus; antibiotic + SP-BIM 9): Synergy (Synergy: FICI≤0.5)
Σ FIC (Bacillus cereus; antibiotic + SP-BIM 9): <1.1
Interpretation (Bacillus cereus; antibiotic + SP-BIM 13): Synergy (Synergy: FICI≤0.5)
Σ FIC (Bacillus cereus; antibiotic + SP-BIM 13): <0.3
MIC in combination, Antibiotic (Bacillus cereus; [9]): 0.5 mg/L
MIC in combination, Antibiotic (Bacillus cereus; [10]): 0.5 mg/L
FIC of antibiotic (Bacillus cereus; in combination with SP-BIM 9): 0.125
FIC of antibiotic (Bacillus cereus; in combination with SP-BIM 13): 0.13
MIC (Klebsiella pneumoniae; SP-BIM 9 checkerboard): 125 mg/L
MIC (Klebsiella pneumoniae; SP-BIM 13 checkerboard): 125 mg/L
FIC of SP-BIM 9 (Klebsiella pneumoniae; [7]): 0.5
FIC of SP-BIM 13 (Klebsiella pneumoniae; [8]): 0.0
Interpretation (Klebsiella pneumoniae; antibiotic + SP-BIM 9): Additive (Additive: FICI>0.5-1.0)
Σ FIC (Klebsiella pneumoniae; antibiotic + SP-BIM 9): <0.6
Interpretation (Klebsiella pneumoniae; antibiotic + SP-BIM 13): Synergy (Synergy: FICI≤0.5)
Σ FIC (Klebsiella pneumoniae; antibiotic + SP-BIM 13): <0.3
MIC in combination, Antibiotic (Klebsiella pneumoniae; [9]): 16 mg/L
MIC in combination, Antibiotic (Klebsiella pneumoniae; [10]): 32 mg/L
FIC of antibiotic (Klebsiella pneumoniae; in combination with SP-BIM 9): 0.128
FIC of antibiotic (Klebsiella pneumoniae; in combination with SP-BIM 13): 0.3
FIC compound ([4]; MRSA strain 1594): 0.004
Rescue concentration of SP-BIM 13 ([4]; MRSA strain 1594): 16 µg/mL
Interpretation ([4]; MRSA strain 1594): Synergy (Synergy: FICI≤0.5)
Σ FIC ([4]; MRSA strain 1594): <0.13
MIC of antibiotic only ([4]; MRSA strain 1594): 63 mg/L
FIC antibiotic ([4]; MRSA strain 1594): 0.127
MIC of antibiotic in combination ([4]; MRSA strain 1594): 8 mg/L
FIC compound ([4]; MRSA strain 5872): 0.064
Rescue concentration of SP-BIM 13 ([4]; MRSA strain 5872): 16 µg/mL
Interpretation ([4]; MRSA strain 5872): Synergy (Synergy: FICI≤0.5)
Σ FIC ([4]; MRSA strain 5872): <0.07
MIC of antibiotic only ([4]; MRSA strain 5872): 125 mg/L
FIC antibiotic ([4]; MRSA strain 5872): 0.004
MIC of antibiotic in combination ([4]; MRSA strain 5872): 0.5 mg/L
FIC compound ([4]; MRSA strain 7153): 0.064
Rescue concentration of SP-BIM 13 ([4]; MRSA strain 7153): 16 µg/mL
Interpretation ([4]; MRSA strain 7153): Synergy (Synergy: FICI≤0.5)
Σ FIC ([4]; MRSA strain 7153): <0.08
MIC of antibiotic only ([4]; MRSA strain 7153): 63 mg/L
FIC antibiotic ([4]; MRSA strain 7153): 0.016
MIC of antibiotic in combination ([4]; MRSA strain 7153): 1 mg/L
FIC compound ([4]; MRSA strain 7698): 0.032
Rescue concentration of SP-BIM 13 ([4]; MRSA strain 7698): 8 µg/mL
Interpretation ([4]; MRSA strain 7698): Synergy (Synergy: FICI≤0.5)
Σ FIC ([4]; MRSA strain 7698): <0.05
MIC of antibiotic only ([4]; MRSA strain 7698): 125 mg/L
FIC antibiotic ([4]; MRSA strain 7698): 0.016
MIC of antibiotic in combination ([4]; MRSA strain 7698): 2 mg/L
FIC compound ([4]; MRSA strain 10132): 0.064
Rescue concentration of SP-BIM 13 ([4]; MRSA strain 10132): 16 µg/mL
Interpretation ([4]; MRSA strain 10132): Synergy (Synergy: FICI≤0.5)
Σ FIC ([4]; MRSA strain 10132): <0.07
MIC of antibiotic only ([4]; MRSA strain 10132): 63 mg/L
FIC antibiotic ([4]; MRSA strain 10132): 0.008
MIC of antibiotic in combination ([4]; MRSA strain 10132): 0.5 mg/L
FIC compound ([5]; E. faecium strain 21955): 0252
Rescue concentration of SP-BIM 13 ([5]; E. faecium strain 21955): 63 µg/mL
Interpretation ([5]; E. faecium strain 21955): Synergy (Synergy: FICI≤0.5)
Σ FIC ([5]; E. faecium strain 21955): <0.26
MIC of antibiotic only ([5]; E. faecium strain 21955): 125 mg/L
FIC antibiotic ([5]; E. faecium strain 21955): 0.004
MIC of antibiotic in combination ([5]; E. faecium strain 21955): 0.5 mg/L
FIC compound ([5]; E. faecium strain 23668): 0.064
Rescue concentration of SP-BIM 13 ([5]; E. faecium strain 23668): 16 µg/mL
Interpretation ([5]; E. faecium strain 23668): Synergy (Synergy: FICI≤0.5)
Σ FIC ([5]; E. faecium strain 23668): <0.08
MIC of antibiotic only ([5]; E. faecium strain 23668): 63 mg/L
FIC antibiotic ([5]; E. faecium strain 23668): 0.016
MIC of antibiotic in combination ([5]; E. faecium strain 23668): 1 mg/L
FIC compound ([5]; E. faecium strain RC63): 0.032
Rescue concentration of SP-BIM 13 ([5]; E. faecium strain RC63): 8 µg/mL
Interpretation ([5]; E. faecium strain RC63): Synergy (Synergy: FICI≤0.5)
Σ FIC ([5]; E. faecium strain RC63): <0.04
MIC of antibiotic only ([5]; E. faecium strain RC63): 125 mg/L
FIC antibiotic ([5]; E. faecium strain RC63): 0.008
MIC of antibiotic in combination ([5]; E. faecium strain RC63): 1 mg/L
MIC (Escherichia coli [6]; read-out: MIC antibiotic only, Escherichia coli, antibiotic alone): 125 mg/L
MIC (Escherichia coli [6]; read-out: MIC antibiotic only, Escherichia coli, antibiotic alone, SP-BIM 9 checkerboard): 125 mg/L
MIC in combination: Antibiotic (Escherichia coli [6]; [13]): 4
FIC of SP-BIM 9 (Escherichia coli [6]; [7]): 1
FIC of SP-BIM 13 (Escherichia coli [6]; [8]): 0.3
Interpretation (Escherichia coli [6]; antibiotic + SP-BIM 9): Indifferent (Indifferent: FICI>1.0-4.0)
Σ FIC (Escherichia coli [6]; antibiotic + SP-BIM 9): <1.1
Interpretation (Escherichia coli [6]; antibiotic + SP-BIM 13): Synergy (Synergy: FICI≤0.5)
Σ FIC (Escherichia coli [6]; antibiotic + SP-BIM 13): <0.3
MIC in combination, Antibiotic (Escherichia coli [6]; [9]): 8 mg/L
FIC of antibiotic (Escherichia coli [6]; combination with SP-BIM 13): 0.0
FIC of antibiotic (Escherichia coli [6]; in combination with SP-BIM 9): 0.064
MIC (Candida albicans; 24 h, read-out: MIC antibiotic only): > 250 mg/L
MIC in combination: Antibiotic (Candida albicans; [13]): 16
FIC of SP-BIM 13 (Candida albicans; [8]): 0.1
Interpretation (Candida albicans; antibiotic + SP-BIM 13): Synergy (Synergy: FICI≤0.5)
Σ FIC (Candida albicans; antibiotic + SP-BIM 13): <0.2
FIC of antibiotic (Candida albicans; combination with SP-BIM 13): 0.1
